Patent US9440914B2, “Method for treating glioblastomas and other tumors” (THE FEINSTEIN INSTITUTE FOR MEDICAL RESEARCH, priority 2013, dated 2016)

What was measured:
GL261 cells = experiment: proliferation assay of GL261 co-cultured with microglia (SRB); assay type: cell-based, murine; details: 200 nM, 3 days
Description: Proliferation Assay: 50,000 GL261 cells were cultured overnight in the absence or presence or microglia (50,000 or 150,000) in serum-containing medium and subsequently cultured in the presence or absence of 200 nM semapimod in a 6-well dish in serum-free conditions. Microglia were added in a ratio of 1:1 or 1:3 GL261:microglia. After 72 h of incubation, plates were washed in PBS and fixed in 3.7% formaldehyde in PBS. In initial experiments, the microglia were stained with tomato lectin for 45 mins and stained all nuclei with DAPI. Ten fluorescence micrographs of each culture were taken with a Zeiss Axiovert-based imaging system. […] Therefore in subsequent experiments the cells were stained with SRB as described for the colony formation assay. After drying, the plates were de-stained with 500 μL of 10 mM Tris base (Sigma). Eluted SRB was measured by absorbance at 490 nm.

ES cells (SK-NEP1) = experiment: proliferation assay of ES cells co-cultured with polarized macrophages; assay type: cell-based, human; details: co-culture with polarized macrophages
Description: In vivo, human ES cells (SK-NEP1) were surgically implanted into the left kidney of athymic mice. Mice were treated for 7 weeks with CNI-1493 or vehicle. Lung parenchyma was assessed for metastases utilizing both H&E and immunohistochemistry for the ES-specific CD99 and endothelial-specific CD31 markers. In vitro, primary macrophages isolated from human blood were polarized to M1 or M2 phenotypes by exposure to GM-CSF or M-CSF and activated with IFN-γ and LPS or IL-4. Cells were co-cultured with polarized macrophages and underwent proliferation and invasion assays in the presence or absence of CNI-1493.

[1] = phase II clinical trial for Crohn's disease; cited from earlier work

## C/C(=N\NC(=N)N)c1cc(NC(=O)CCCCCCCCC(=O)Nc2cc(/C(C)=N/NC(=N)N)cc(/C(C)=N/NC(=N)N)c2)cc(/C(C)=N/NC(=N)N)c1 [semapimod]
GL261 cells
  effect on microglia-stimulated glioblastoma cell proliferation: does not affect
ES cells (SK-NEP1)
  effect on ES cellular proliferation: unaffected
[1]
  tolerability in humans: very well tolerated
